Data reported in ChEMBL document CHEMBL3102738, “Synthesis and biological evaluation of nitric oxide-donating analogues of sulindac for prostate cancer treatment” (Bioorg Med Chem, 2014).

What was measured:
Type in all cases: functional
PC-3 [1] = assay: Cytotoxicity against human PC3 cells assessed as cell viability at 50 uM after 72 hrs by crystal violet method (reference value: 95.69 +/- 7.66%); conditions: PC-3, 72 h, read-out: Activity
PC-3 [2] = assay: Cytotoxicity against human PC3 cells assessed as cell viability at 50 uM after 24 hrs by crystal violet method (reference value: 99.09 +/- 9.87%); conditions: PC-3, 24 h, read-out: Activity
PC-3 [3] = assay: Cytotoxicity against human PC3 cells assessed as cell viability at 50 uM after 48 hrs by crystal violet method (reference value: 100.87 +/- 4.87%); conditions: PC-3, 48 h, read-out: Activity

Structure (SMILES) | viability at 50 µM (PC-3 [1]) [%] | viability at 50 µM (PC-3 [2]) [%] | viability at 50 µM (PC-3 [3]) [%]
CSc1ccc(/C=C2/C(C)=C(CC(=O)OCCO[N+](=O)[O-])c3cc(F)ccc32)cc1 | 91.2 | 95.6 | 119
CC1=C(CC(=O)OC(CO[N+](=O)[O-])CO[N+](=O)[O-])c2cc(F)ccc2/C1=C\c1ccc([S+](C)[O-])cc1 (centres undefined) | 30.2 | 46.5 | 44.9
CC1=C(CC(=O)OCCOCCOc2no[n+]([O-])c2S(=O)(=O)c2ccccc2)c2cc(F)ccc2/C1=C\c1ccc(S(C)(=O)=O)cc1 | 0 | 0 | 0
CSc1ccc(/C=C2/C(C)=C(CC(=O)OC/C=C\COc3no[n+]([O-])c3S(=O)(=O)c3ccccc3)c3cc(F)ccc32)cc1 | 20.6 | 30.6 | 31.4
CC1=C(CC(=O)OCCCCOc2no[n+]([O-])c2S(=O)(=O)c2ccccc2)c2cc(F)ccc2/C1=C\c1ccc([S+](C)[O-])cc1 (centres undefined) | 16.5 | 32.3 | 21.8
CC1=C(CC(=O)OCCCOc2no[n+]([O-])c2S(=O)(=O)c2ccccc2)c2cc(F)ccc2/C1=C\c1ccc(S(C)(=O)=O)cc1 | 0 | 0 | 0
CC1=C(CC(=O)OCCCCO)c2cc(F)ccc2/C1=C\c1ccc(S(C)(=O)=O)cc1 | 86.6 | 87.4 | 81.5
CSc1ccc(/C=C2/C(C)=C(CC(=O)OCCCCO)c3cc(F)ccc32)cc1 | 84 | 98.2 | 80.5
CC1=C(CC(=O)OCCOc2no[n+]([O-])c2S(=O)(=O)c2ccccc2)c2cc(F)ccc2/C1=C\c1ccc(S(C)(=O)=O)cc1 | 0 | 0 | 0
CSc1ccc(/C=C2/C(C)=C(CC(=O)OCC(CO[N+](=O)[O-])(CO[N+](=O)[O-])CO[N+](=O)[O-])c3cc(F)ccc32)cc1 | 110 | 88.3 | 101
CC1=C(CC(=O)OC/C=C\COc2no[n+]([O-])c2S(=O)(=O)c2ccccc2)c2cc(F)ccc2/C1=C\c1ccc(S(C)(=O)=O)cc1 | 0 | 0 | 0
CC1=C(CC(=O)OCCCCO[N+](=O)[O-])c2cc(F)ccc2/C1=C\c1ccc(S(C)(=O)=O)cc1 | 54.7 | 68.7 | 52.9
CSc1ccc(/C=C2/C(C)=C(CC(=O)OCCCCCCOc3no[n+]([O-])c3S(=O)(=O)c3ccccc3)c3cc(F)ccc32)cc1 | 29.2 | 57.2 | 41.7
CSc1ccc(/C=C2/C(C)=C(CC(=O)OCC#CCOc3no[n+]([O-])c3S(=O)(=O)c3ccccc3)c3cc(F)ccc32)cc1 | 14.9 | 25.4 | 20.8
CC1=C(CC(=O)Oc2cccc(Oc3no[n+]([O-])c3S(=O)(=O)c3ccccc3)c2)c2cc(F)ccc2/C1=C\c1ccc(S(C)(=O)=O)cc1 | 0 | 0 | 0
CSc1ccc(/C=C2/C(C)=C(CC(=O)OC(CO[N+](=O)[O-])CO[N+](=O)[O-])c3cc(F)ccc32)cc1 | 93.5 | 91.2 | 92.3
CC1=C(CC(=O)OCc2cccc(Oc3no[n+]([O-])c3S(=O)(=O)c3ccccc3)c2)c2cc(F)ccc2/C1=C\c1ccc([S+](C)[O-])cc1 (centres undefined) | 51.9 | 71.8 | 56.2
CSc1ccc(/C=C2/C(C)=C(CC(=O)OCc3cccc(Oc4no[n+]([O-])c4S(=O)(=O)c4ccccc4)c3)c3cc(F)ccc32)cc1 | 82.7 | 102 | 79.7
CC1=C(CC(=O)OCCCCCCO[N+](=O)[O-])c2cc(F)ccc2/C1=C\c1ccc(S(C)(=O)=O)cc1 | 64 | 93.3 | 59
CC1=C(CC(=O)OCCCCCCO[N+](=O)[O-])c2cc(F)ccc2/C1=C\c1ccc([S+](C)[O-])cc1 (centres undefined) | 88.1 | 105 | 72.7
CC1=C(CC(=O)OCCCCCCOc2no[n+]([O-])c2S(=O)(=O)c2ccccc2)c2cc(F)ccc2/C1=C\c1ccc(S(C)(=O)=O)cc1 | 15.4 | 42.4 | 24.2
CC1=C(CC(=O)OCC#CCOc2no[n+]([O-])c2S(=O)(=O)c2ccccc2)c2cc(F)ccc2/C1=C\c1ccc(S(C)(=O)=O)cc1 | 27.3 | 36.5 | 38
CC1=C(CC(=O)Oc2cccc(Oc3no[n+]([O-])c3S(=O)(=O)c3ccccc3)c2)c2cc(F)ccc2/C1=C\c1ccc([S+](C)[O-])cc1 (centres undefined) | 66.3 | 74 | 67.7
